# Experiments:
# [1] = tested on: T lymphocytes; assay: Activation of immune function of T lymphocytes, HMB compared with KIC; set-up: species or system mammals
# [2] = tested on: Mycoplasma species and other easily isolated bacteria; assay: Pigs: bacteria cultured from bronchi; assay type: in vivo; conditions: HMB-fed pigs
# Excerpt: (§1) Twelve specific pathogen free (SPF) pigs 4-5 weeks of age were distributed into two groups, each being blocked by gender and litter. All pigs were fed approximately 4% of their body weight of a commercially purchased starter ration. Pigs were penned individually and allowed free access to water.
# (§2) Diets were supplemented with one of two dietary treatments: Control (limestone)(n=6) and HMB (n=6). Dietary treatments were fed at 0.05% of the body weight. HMB was synthesized by the method of Example 1. One week later, pigs were injected with 5 ml/30 kg body weight of a 20% suspension of sheep red blood cells (SRBC) subcutaneously.
# (§3) Fourteen days post dietary treatments, all pigs were challenged via intratracheal inoculation with 5 ml of a ground lung suspension. The suspension was derived from pig pneumonic tissue obtained from a pig experimentally inoculated with Mycoplasma hyopneumoniae. […] Titers to Mycoplasma hyopneumoniae were determined using a serum complement fixation assay. At necropsy, the extent of macroscopic pneumonia lesions was recorded and samples from all pigs were submitted for histopathology to assay microscopic lesions. Lung and bronchi samples were cultured and evaluated for the presence of Mycoplasma species (i.e., M. hyorhinis, M. hyosynoviae, and M. hyopneumoniae) and other easily isolated bacteria (i.e., bordetella, pasteurella, and hemophilus).
# [3] = tested on: sheep red blood cells (SRBC); assay: Pigs: antibody titers against sheep red blood cells (agglutination assay); assay type: in vivo; conditions: HMB-fed pigs; control 11.6; * p < .05
# Excerpt: as §1, §2, §3
# [4] = tested on: isolated lymphocytes; assay: HMB effects on lymphocyte function in lambs (ex vivo mitogen-stimulated blastogenesis after feeding)
# Procedure: Animals and Experimental Design. Three sets of twin lambs were housed individually in fiberglass pens. Animals were randomly assigned to control or HMB diets, using a standard basal diet with and without 0.05% HMB.
# Blood Sampling and Lymphocyte Preparation. In the first experiment, animals were bled for lymphocyte blastogenesis assays and T-cell subset analysis 38, 45, and 52 days after dietary treatments began. Blood (50 ml) was collected, aseptically, via jugular venepuncture into 10 ml acid-citrate-dextrose anticoagulant (44 g trisodium citrate, 16 g citric acid and 50 g dextrose per 1 of triple-distilled water). Blood was centrifuged, the buffy coat removed, and 1 volume of buffy coat was diluted with 0.5 volume of plasma which was added to 2 volumes of Sepracell-MN (Sepratech Corporation, Oklahoma City, Okla.). After further centrifugation at 1500 x g for 25 min, the mononuclear layer was removed and washed twice with Hanks' balanced salt solution (HBSS; Gibco, Grand Island, N.Y.) by centrifuging at 150 x g for 15 min. The remaining white blood cells were resuspended in HBSS, and the total number of white blood cells was determined by using an automated cell counter (Coulter Electronics, Hialeah, Fla.). The concentration of the cells was adjusted to 1×20^6 " cells/ml with HBSS.
# Lymphocyte Blastogenesis Determinations. Blastogenesis assays were performed on isolated lymphocytes by using a 3-d culture procedure as described previously. Briefly, isolated lymphocytes were cultured in microtiter plates with 2×10^5 " cells in 0.15 ml of culture medium/well. Culture medium consisted of RPMI media-1640 (Gibco, Grand Island, N.Y.) containing 15% heat-inactivated fetal bovine serum and 1% antibiotic-antimycotic solution (Gibco, Grand Island, N.Y.). Unstimulated and mitogen-stimulated cultures were assayed in triplicate. Mitogens used were phytohemagglutinin-P (PHA), concanavalin A (ConA) and pokeweed mitogen (PWM). PHA was purchased from Difco Laboratories, Detroit, MI; ConA from Miles Laboratories, Elkhart, IN; and PWM from Gibco, New York, N.Y. Microtiter plates were incubated at 37° C. in a humidified 5% CO2 atmosphere. After 48 h, 0.25 uCi of ^3 H-thymidine (New England Nuclear, Boston, Mass.) was added to each well. Eighteen hours later, the cultures were harvested onto glass-fiber filters with an automated sample harvester (Flow Laboratories, Rockville, Mo.), filters were placed in 10 ml CytoScint scintillation solution (ICN Biomedicals, Irvine, CA), and radioactivity was counted in a liquid scintillation counter. This procedure is similar to that described by Kuhlman, et al., J. Nutr., 118:1564-1569.
# [5] = tested on: Mycoplasma hyopneumoniae; assay: Pigs infected with Mycoplasma: lung lesions, lung fluorescent antibodies, antibody titers; assay type: in vivo
# Excerpt: as §1, §2
# Fourteen days post dietary treatments, all pigs were challenged via intratracheal inoculation with 5 ml of a ground lung suspension. The suspension was derived from pig pneumonic tissue obtained from a pig experimentally inoculated with Mycoplasma hyopneumoniae. Blood samples were collected once a week for the evaluation of antibodies produced in response to the SRBC and Mycoplasma hyopneumoniae antigenic stimuli. An agglutination assay was used to determine antibody titers produced against SRBC. Titers to Mycoplasma hyopneumoniae were determined using a serum complement fixation assay. At necropsy, the extent of macroscopic pneumonia lesions was recorded and samples from all pigs were submitted for histopathology to assay microscopic lesions. Lung and bronchi samples were cultured and evaluated for the presence of Mycoplasma species (i.e., M. hyorhinis, M. hyosynoviae, and M. hyopneumoniae) and other easily isolated bacteria (i.e., bordetella, pasteurella, and hemophilus).
# [6] = tested on: lymphocytes; assay: In vitro effects of leucine or leucine metabolites on PHA-stimulated lymphocyte blastogenesis (3H-thymidine incorporation); assay type: cell-based, bovine; conditions: for activation at 1000 µM: Bos taurus, Lymphocyte, 72 h, final concentration 1 mM, PHA stimulated, read-out: % Change from No Additive, in vitro lymphocyte blastogenesis (Mean Percent Change, SEM)
# Procedure: Lymphocyte Blastogenesis Determinations. Blood collections, lymphocyte isolation and blastogenesis assays were performed on isolated bovine cells by using a 3-d culture procedure as described previously in Kuhlman, et al. (1988), J. Nutr., 118:1564-1569.
# Isolated lymphocytes were exposed to 1 and 10 mM Leu and KIC and the metabolites isovalarate, β-hydroxy-β-methyl butyrate (HMB), β-hydroxy-β-methyl glutarate, butyrate, acetate, acetone, acetoacetate, and β-hydroxy butyrate (BOHB). The cells were then stimulated with the mitogen phytohemagglutinin, and incorporation of ^3 H-thymidine into the DNA of the dividing lymphocytes was measured.
# Leucine and Leucine Metabolites. Most of the compounds listed in Table B were purchased from Sigma Chemical Company, St. Louis, MO. KIC was purchased from SOBAC (Paris, France), HMB was synthesized as described in Example 1, and the calcium salt of HMB was purified by crystallization in 95% ethanol. The calcium salt was converted to a sodium salt form and used in subsequent assays. The pH of all compounds was adjusted to approximately 7.3. Compounds were passed through a 0.2-um filter assembly to assure sterility.
# [7] = tested on: Bordetella broncheseptica; assay: Pigs: nasal degeneration scores; assay type: in vivo; conditions: HMB-fed pigs
# Excerpt: as §1, §2
# (§4) The iliac lymph nodes, liver, spleen, and gastrocnemius muscle were removed from the carcass and weighed. The nasal cavity was examined for evidence of Bordetella broncheseptica infection that will result in nasal turbinate degeneration. Nasal degeneration was scored as to severity with 0 indicating no lesions and the highest score, 3, corresponding to […] degeneration.
# [8] = Stability of HMB (and KIC) in the rumen: incubation in diluted rumen fluid; assay type: in vitro ADME, steer; conditions: as far as is known; general statement, oral administration to ruminants
# [9] = Pigs: organ weights at necropsy; assay type: in vivo; conditions: HMB-fed pigs
# Excerpt: as §1, §2, §4
# [10] = Stability of HMB (and KIC) in the rumen: incubation in diluted rumen fluid; assay type: in vitro ADME, steer
# Procedure: Rumen fluid was collected from a fistulated steer. After filtration and dilution (1:4) with an artificial saliva, 25ml of the solution was added to 50ml plastic tubes. Each tube was fitted with a one-way valve to allow gases to escape while not allowing air into the tube. Each tube was then gassed with C02 and incubated at 39° C. After 30 min a solution of KIC or HMB was added to the tube in concentrations to simulate what would be present in the rumen of an animal consuming .05% of the diet as KIC or HMB. It was estimated that a 50uM concentration would be attained in this case. At timed intervals 50ul samples of this rumen fluid were taken and analyzed for KIC and HMB.
# [11] = rat feeding studies; cited from earlier work
# [12] = cited from earlier work
# [13] = U.S. Pat. No. 4,835,185; cited from earlier work
# [14] = tested on: T lymphocytes; conditions: U.S. Pat. No. 4,835,185; cited from earlier work
# [15] = Before Treatment (baseline of HMB group)
# [16] = 0 min after addition, rumen fluid diluted 1:4, 39° C., initial concentration of KIC was estimated
# [17] = 15 min after addition, rumen fluid, 39° C.
# [18] = 30 min after addition, rumen fluid, 39° C.
# [19] = 60 min after addition, rumen fluid, 39° C.
# [20] = 240 min after addition, rumen fluid, 39° C.
# [21] = 480 min after addition, rumen fluid, 39° C.
smiles,measurement,setting,value
"CC(C)(O)CC(=O)O [HMB, β-hydroxy-β-methyl butyric acid]",Activation of immune function of T lymphocytes relative to KIC (in words),[1],markedly more effective for activating the immune function of T lymphocytes
same,Bacteria cultured in the bronchi (in words),[2],fewer bacteria cultured in the bronchi
same,"Bronchi, presence of bacteria",[2]; control 1.1,0.8
same,Red blood cell titers (dilution) day 10-15,[3],15.5 dilution
same,"Decays Per Min of 3H Thymidine Incorporated into Isolated Lymphocytes, PHA Stimulation","[4]; After Treatment, diet with 0.05% HMB, control 15,000","18,000 Decays Per Min"
same,"Decays Per Min of 3H Thymidine Incorporated into Isolated Lymphocytes, PWM Stimulation","[4]; After Treatment, diet with 0.05% HMB, control 18,000","25,000 Decays Per Min"
same,"Decays Per Min of 3H Thymidine Incorporated into Isolated Lymphocytes, ConA Stimulation","[4]; After Treatment, diet with 0.05% HMB, control 19,000","21,000 Decays Per Min"
same,"Decays Per Min of 3H Thymidine Incorporated into Isolated Lymphocytes, ConA Stimulation",[4]; [15],"41,000 Decays Per Min"
same,"Decays Per Min of 3H Thymidine Incorporated into Isolated Lymphocytes, PHA Stimulation",[4]; [15],"23,000 Decays Per Min"
same,"Decays Per Min of 3H Thymidine Incorporated into Isolated Lymphocytes, PWM Stimulation",[4]; [15],"21,000 Decays Per Min"
same,"Change in 3H Thymidine incorporation, PWM Stimulation","[4]; after minus before treatment, change in control -14,000","+4,000 Decays Per Min"
same,"Change in 3H Thymidine incorporation, PHA Stimulation","[4]; after minus before treatment, change in control -22,000","-5,000 Decays Per Min"
same,"Change in 3H Thymidine incorporation, ConA Stimulation","[4]; after minus before treatment, change in control -29,000","-20,000 Decays Per Min"
same,Effect on decline in lymphocyte function (in words),"[4]; lambs, 0.05% HMB diet",tended to effect the decline in lymphocyte function
same,M. hyopneumoniae colonies by fluorescent antibody technique (in words),[5]; HMB-fed pigs,decreased
same,Prevention of Mycoplasmal lung damage (in words),[5]; HMB-fed pigs infected with M. hyopneumoniae,can prevent some of the lung damage associated with a Mycoplasmal lung agent
same,Lung or bronchi evaluations (in words),[5]; HMB-fed pigs vs control,no significant differences were seen in the lung or bronchi evaluations
same,M. hyopneumoniae antibody titers (in words),[5]; HMB-fed pigs vs control,no significant differences
same,Lung fluorescent antibodies to M. hyopneumoniae,"[5]; HMB-fed pigs, control 12.6",10.3
same,% lung showing lesions,"[5]; HMB-fed pigs, control 18.7",13.7%
same,M. hyopneumoniae peak titers,"[5]; HMB-fed pigs, serum complement fixation, control 7.1",6.7
same,Extent of mycoplasmal lung infection (in words),"[5]; vs KIC-fed or control animals, not statistically significant",lesser extent of mycoplasmal lung infection than did KIC-fed or control animals
same,activation at 1000 µM,[6],78%
same,Nasal degeneration due to bordetella infection (in words),[7],significant decrease in nasal degeneration due to bordetella infection
same,Severity of nasal turbinate lesions (in words),[7],less severe lesions of the nasal turbinates
same,Nasal degeneration scores (0 = no lesion),"[7]; highest score 3 = moderate degeneration, control 1.6, * p < .05",0.8
same,Rumen destruction (in words),[8],not subject to significant rumen destruction
same,Size of spleen and iliac lymph node (in words),[9],smaller in HMB-fed animals
same,Iliac lymph node weight,"[9]; control 3.8, * p < .05",3.3 g
same,Spleen weight,[9]; control 101,94 g
same,Stability in rumen environment (in words),[10],quite stable in a rumen environment
same,KIC / HMB in rumen fluid,[10]; [16],60 µM
same,KIC / HMB in rumen fluid,[10]; [17],76 µM
same,KIC / HMB in rumen fluid,[10]; [18],81 µM
same,KIC / HMB in rumen fluid,[10]; [19],71 µM
same,KIC / HMB in rumen fluid,[10]; [20],74 µM
same,KIC / HMB in rumen fluid,[10]; [21],74 µM
"CC(C)CC(=O)C(=O)O [KIC, α-keto-isocaproic acid]",Amount of KIC required to replace leucine,[11],two to three times as much KIC as the nutritionally required amount of leucine
same,"Cholesterol in meat, milk and eggs (in words)","[12]; U.S. Pat. Nos. 4,760,090 and 4,760,531","cholesterol reduction in meat, milk and eggs"
same,Milk production (in words),"[12]; lactating domestic animals, U.S. Pat. No. 4,758,593",the quantity of milk produced may be increased
same,Egg production (in words),"[12]; laying chickens, U.S. Pat. No. 4,760,531",can also sometimes be increased
same,Wool production (in words),"[12]; mature sheep, U.S. Pat. No. 4,760,090",the amount of wool produced may also be increased
same,Weight gain and/or feed efficiencies (in words),"[12]; milligram amounts of KIC, U.S. Pat. Nos. 4,760,090 and 4,883,817",some increases in the rates of weight gain and/or feed efficiencies
same,Plasma cortisol levels (in words),[13],will usually decrease plasma cortisol levels
same,Blastogenesis function (in words),[14],activating the blastogenesis function of the immune systems
same,Direct effect on the immune system (in words),[6],have no effect on he immune system directly
same,Effect on blastogenesis (in words),[6],had no effects on blastogenesis
same,activation at 1000 µM,[6],-3 ± 7%
same,Stability in rumen environment (in words),[10],rapidly destroyed by the rumen bacteria
same,KIC / HMB in rumen fluid,[10]; [16],30 µM
same,KIC / HMB in rumen fluid,[10]; [17],15 µM
same,KIC / HMB in rumen fluid,[10]; [18],4 µM
same,KIC / HMB in rumen fluid,[10]; [19],2 µM
same,KIC / HMB in rumen fluid,[10]; [20],2 µM
same,KIC / HMB in rumen fluid,[10]; [21],1 µM
"CC(C)C[C@H](N)C(=O)O [Leucine, L-leucine]",Direct effect on the immune system (in words),[6],have no effect on he immune system directly
same,Effect on blastogenesis (in words),[6],tended to suppress blastogenesis
same,activation at 1000 µM,[6],-12 ± 6%
